Laboratory results as given in PMC8274516, “Identification of imidazo[4,5-c]pyridin-2-one derivatives as novel Src family kinase inhibitors against glioblastoma” (Journal of Enzyme Inhibition and Medicinal Chemistry, 2021).
Read-outs that look alike come from different tables or passages of the source.

Columns and labels:
Src = molecular target: T1, Src (Homo sapiens, UniProt P12931); experiment: HTRF KinEASE-TK enzymatic assay, Src; assay type: biochemical; settings: for Inhibition (1 μM, %) Src: compound at 1 μM, ATP at Km (16 µM), average of two independent experiments
T1 construct: purchased Carna Biosciences 08-173

Fyn = molecular target: T2, Fyn (Homo sapiens, UniProt P06241); experiment: HTRF KinEASE-TK enzymatic assay, Fyn; assay type: biochemical; settings: for Inhibition (1 μM, %) Fyn: compound at 1 μM; for Inhibition (1 μM, %) Fyn / IC50: ATP at Km (51.76 µM), average of two independent experiments
T2 construct: purchased Carna Biosciences 08-168

T98G GBM cell line = experiment: Cell proliferation inhibition assay (MTT), T98G; assay type: cell-based; settings: 72 h, mean of at least three independent experiments, read-out: Antiproliferative activity IC50, T98G
Procedure: (§1) GBM cell lines U87, U251, and T98G (purchased from the American Type Culture Collection Company, Manassas, VA) were cultured in Roswell Park Memorial Institute (RPMI) 1640 medium containing 10% foetal bovine serum (FBS) at 37 °C in 5% CO2 incubator. The U87-EGFRvIII cell line established with EGFRvIII, kindly provided by Professor Xingmei Zhang, and grown in DMEN supplement with 10% FBS and […] G418 (Sigma-Aldrich, St. Louis, MO) at 37 °C in 5% CO2 incubator. The anti-proliferative activities of the compounds to be tested against four glioblastoma cell lines were determined by standard MTT method. In order to determine the anti-proliferation effect of the tested compounds, four cell lines were inoculated at a density of 2 × 10^3 cells/ml and treated with compounds at a concentration of 1–100 µM. The cells were co-incubated with different concentrations of the tested drugs for 72 h, and 10% MTT solution diluted in 100 µL medium was added. After 4 h of incubation, the absorbance value of each hole was measured at […] with an enzyme-linked immunosorbent assay plate reader. All compounds were tested three times in each cell line.

U251 GBM cell line = experiment: Cell proliferation inhibition assay (MTT), U251; assay type: cell-based; settings: mean of at least three independent experiments, read-out: Antiproliferative activity IC50, U251
Procedure: as §1

U87 GBM cell line = experiment: Cell proliferation inhibition assay (MTT), U87; assay type: cell-based; settings: 72 h, mean of at least three independent experiments, read-out: Antiproliferative activity IC50, U87
Procedure: as §1

[1] = tested on: U87-EGFRvIII GBM cell line; experiment: Cell proliferation inhibition assay (MTT), U87-EGFRvIII; assay type: cell-based; settings: 72 h, mean of at least three independent experiments, read-out: Antiproliferative activity IC50, U87-EGFRvIII

T2 sequence (P06241 whole entry): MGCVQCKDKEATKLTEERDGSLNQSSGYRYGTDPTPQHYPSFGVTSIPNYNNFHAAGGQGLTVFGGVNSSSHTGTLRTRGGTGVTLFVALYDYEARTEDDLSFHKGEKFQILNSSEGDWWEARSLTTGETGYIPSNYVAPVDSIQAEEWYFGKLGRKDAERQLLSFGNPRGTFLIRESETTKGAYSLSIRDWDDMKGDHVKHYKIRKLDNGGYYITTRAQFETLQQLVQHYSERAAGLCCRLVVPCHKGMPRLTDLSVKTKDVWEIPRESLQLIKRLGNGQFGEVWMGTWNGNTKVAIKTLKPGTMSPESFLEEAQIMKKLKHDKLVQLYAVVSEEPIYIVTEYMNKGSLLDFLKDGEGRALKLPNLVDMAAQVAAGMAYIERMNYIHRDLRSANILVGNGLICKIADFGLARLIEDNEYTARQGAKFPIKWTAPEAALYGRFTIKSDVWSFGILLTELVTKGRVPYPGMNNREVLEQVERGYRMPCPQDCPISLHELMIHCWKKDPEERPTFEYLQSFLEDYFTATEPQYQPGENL

inhibition at 1 µM (Src)	inhibition at 1 µM (Fyn)	Compound	further results
45%	44%	N#Cc1ccc(-n2c(=O)n(C3CCCC3)c3ccnc(N)c32)cc1 [Compound 1n, 4-(4-amino-1-cyclopentyl-2-oxo-1,2-dihydro-3H-imidazo[4,5-c]pyridin-3-yl)benzonitrile]	
19%	20%	Nc1nccc2c1n(-c1ccc(CO)cc1)c(=O)n2C1CCCC1 [Compound 1o, 4-amino-1-cyclopentyl-3-(4-(hydroxymethyl)phenyl)-1,3-dihydro-2H-imidazo[4,5-c]pyridin-2-one]	
66%	19%	Nc1nccc2c1n(-c1cccc(F)c1)c(=O)n2C1CCCC1 [Compound 1p, 4-amino-1-cyclopentyl-3-(3-fluorophenyl)-1,3-dihydro-2H-imidazo[4,5-c]pyridin-2-one]	
85%	74%	Nc1nccc2c1n(-c1ccc3c(c1)OCO3)c(=O)n2C1CCCC1 [Compound 1q, 4-amino-3-(benzo[d][1,3]dioxol-5-yl)-1-cyclopentyl-1H-imidazo[4,5-c]pyridin-2(3H)-one]	IC50 (Src): 0.22 µM; IC50 (T98G GBM cell line; Homo sapiens, T98G): 20.7 ± 0.67 µM; IC50 (Fyn): 0.73 µM; IC50 (U251 GBM cell line; Homo sapiens, U-251, 72 h): 30 ± 0.93 µM; IC50 (U87 GBM cell line): 47 ± 3.78 µM; IC50 [1]: 69 ± 8.39 µM
84%	30%	Nc1nccc2c1n(-c1ccc3[nH]ccc3c1)c(=O)n2C1CCCC1 [Compound 1r, 4-amino-1-cyclopentyl-3-(1H-indol-5-yl)-1,3-dihydro-2H-imidazo[4,5-c]pyridin-2-one]	
93%	90%	Nc1nccc2c1n(-c1ccc(Oc3ccccc3)cc1)c(=O)n2C1CCCC1 [Compound 1s, 4-amino-1-cyclopentyl-3-(4-phenoxyphenyl)-1,3-dihydro-2H-imidazo[4,5-c]pyridin-2-one]	IC50 (Src): 0.15 µM; IC50 (T98G GBM cell line): 16.4 ± 2.12 µM; IC50 (T98G GBM cell line; Homo sapiens, T98G): 16.4 µM; IC50 (Fyn): 0.21 µM; IC50 (U251 GBM cell line; 72 h): 24.6 ± 2.28 µM; IC50 (U251 GBM cell line; Homo sapiens, U-251, 72 h): 24.6 µM; IC50 (U87 GBM cell line): 30.3 ± 0.84 µM; IC50 [1]: 50.5 µM

The remaining lines, values behind:

Compound	inhibition at 1 µM (Src)	inhibition at 1 µM (Fyn)	further results
4-amino-1-(3-bromophenyl)-3-(4-chlorophenyl)-1H-imidazo[4,5-c]pyridin-2(3H)-one [Compound 1c]			Inhibition (1 μM, %) Src (Src): 68%; Inhibition (1 μM, %) Fyn (Fyn): 31%
4-amino-3-(4-chlorophenyl)-1-(m-tolyl)-1H-imidazo[4,5-c]pyridin-2(3H)-one [Compound 1b]			Inhibition (1 μM, %) Src (Src): 54%; Inhibition (1 μM, %) Fyn (Fyn): 11%
Nc1nccc2c1n(-c1ccc(Cl)cc1)c(=O)n2-c1ccccc1 [Compound 1a, 4-amino-3-(4-chlorophenyl)-1-phenyl-1H-imidazo[4,5-c]pyridin-2(3H)-one]	78%	35%	
Nc1nccc2c1n(-c1ccc(Cl)cc1)c(=O)n2C1CCCC1 [Compound 1d, 4-amino-3-(4-chlorophenyl)-1-cyclopentyl-1,3-dihydro-2H-imidazo[4,5-c]pyridin-2-one]	96%	90%	IC50 (Src): 0.19 µM; IC50 (T98G GBM cell line; Homo sapiens, T98G): 20.6 ± 0.3 µM; IC50 (Fyn): 0.24 µM; IC50 (U251 GBM cell line; Homo sapiens, U-251, 72 h): 33.3 ± 3.36 µM; IC50 (U87 GBM cell line): 63.3 ± 10.5 µM; IC50 [1]: 67.2 ± 3.2 µM
Nc1nccc2c1n(-c1ccc(Cl)cc1)c(=O)n2C1CCCCC1 [Compound 1e, 4-amino-3-(4-chlorophenyl)-1-cyclohexyl-1H-imidazo[4,5-c]pyridin-2(3H)-one]	88%	76%	IC50 (Src): 0.073 µM; IC50 (T98G GBM cell line; Homo sapiens, T98G): 20.1 ± 0.67 µM; IC50 (Fyn): 0.58 µM; IC50 (U251 GBM cell line; Homo sapiens, U-251, 72 h): 36.1 ± 2.53 µM; IC50 (U87 GBM cell line): 53.6 ± 2.51 µM; IC50 [1]: > 100 µM
CC(C)(C)n1c(=O)n(-c2ccc(Cl)cc2)c2c(N)nccc21 [Compound 1f, 4-amino-1-(tert-butyl)-3-(4-chlorophenyl)-1H-imidazo[4,5-c]pyridin-2(3H)-one]	84%	62%	
CC(C)Cn1c(=O)n(-c2ccc(Cl)cc2)c2c(N)nccc21 [Compound 1g, 4-amino-3-(4-chlorophenyl)-1-isobutyl-1H-imidazo[4,5-c]pyridin-2(3H)-one]	16%	19%	
CN(C)CCn1c(=O)n(-c2ccc(Cl)cc2)c2c(N)nccc21 [Compound 1h, 4-amino-3-(4-chlorophenyl)-1-(2-(dimethylamino)ethyl)-1H-imidazo[4,5-c]pyridin-2(3H)-one]	18%	19%	
COCCn1c(=O)n(-c2ccc(Cl)cc2)c2c(N)nccc21 [Compound 1i, 4-amino-3-(4-chlorophenyl)-1-(2-methoxyethyl)-1H-imidazo[4,5-c]pyridin-2(3H)-one]	65%	24%	
Nc1nccc2c1n(-c1ccc(Cl)cc1)c(=O)n2CCN1CCOCC1 [Compound 1j, 4-amino-3-(4-chlorophenyl)-1-(2-morpholinoethyl)-1H-imidazo[4,5-c]pyridin-2(3H)-one]	5%	12%	
Cc1ccc(-n2c(=O)n(C3CCCC3)c3ccnc(N)c32)cc1 [Compound 1k, 4-amino-1-cyclopentyl-3-(p-tolyl)-1,3-dihydro-2H-imidazo[4,5-c]pyridin-2-one]	88%	65%	
COc1ccc(-n2c(=O)n(C3CCCC3)c3ccnc(N)c32)cc1 [Compound 1l, 4-amino-1-cyclopentyl-3-(4-methoxyphenyl)-1,3-dihydro-2H-imidazo[4,5-c]pyridin-2-one]	91%	28%	
Nc1nccc2c1n(-c1ccc(C(F)(F)F)cc1)c(=O)n2C1CCCC1 [Compound 1m, 4-amino-1-cyclopentyl-3-(4-(trifluoromethyl)phenyl)-1,3-dihydro-2H-imidazo[4,5-c]pyridin-2-one]	11%	-2%	
CC(C)(C)n1nc(-c2ccc(Cl)cc2)c2c(N)ncnc21 [PP2, reference compound]	93%		IC50 (T98G GBM cell line; Homo sapiens, T98G): 12.5 ± 2.37 µM; IC50 (U251 GBM cell line; Homo sapiens, U-251, 72 h): 21.1 ± 2.16 µM; IC50 (U87 GBM cell line): 39.9 ± 6.91 µM
